Calls of active or inactive are those of the source. The rule behind the calls is not given here.
How the values were obtained:
M21 [1] = assay: Antiproliferative activity against human M21 cells assessed as reduction in cell viability measured after 48 hrs by sulforhodamine B assay; assay type: functional, cell-based; conditions: M21, 48 h
MCF7 = assay: Antiproliferative activity against human MCF7 cells assessed as reduction in cell viability measured after 48 hrs by sulforhodamine B assay; assay type: functional, cell-based; conditions: MCF7, 48 h
HT-29 = assay: Antiproliferative activity against human HT-29 cells assessed as reduction in cell viability measured after 48 hrs by sulforhodamine B assay; assay type: functional, cell-based; conditions: HT-29, 48 h
HT-1080 = assay: Antiproliferative activity against human HT-1080 cells assessed as reduction in cell viability measured after 48 hrs by sulforhodamine B assay; assay type: functional, cell-based; conditions: HT-1080, 48 h
M21 [2] = assay: Cell cycle arrest in human M21 cells assessed as accumulation at SubG1 phase at 2 to 5 times IC50 measured after 24 hrs by DAPI staining based flow cytometry (reference value: 5%); assay type: functional
M21 [3] = assay: Cell cycle arrest in human M21 cells assessed as accumulation at S phase at 2 to 5 times IC50 measured after 24 hrs by DAPI staining based flow cytometry (reference value: 16.1%); assay type: functional
M21 [4] = assay: Cell cycle arrest in human M21 cells assessed as accumulation at G2/M phase at 2 to 5 times IC50 measured after 24 hrs by DAPI staining based flow cytometry (reference value: 13.4%); assay type: functional
[5] = biological target: Tubulin beta (Homo sapiens) (UniProt P68371+Q9H4B7+Q13509+P04350+Q3ZCM7+P07437+Q13885+Q9BVA1+Q9BUF5+A6NNZ2); assay: Inhibition of EBI binding to colchicine-binding site of beta-tubulin in human M21 cells at 100 to 1000 times IC50 preincubated for 2 hrs followed by EBI addition and measured after 1.5 hrs by Western blot analysis; assay type: cell-based; conditions: time 3.5 hrs
Tubulin (Homo sapiens) [6] = biological target: T1, Tubulin (Homo sapiens) (UniProt P68371+Q9H4B7+P0DPH7+P68366+Q13509+Q71U36+P04350+Q3ZCM7+P07437+P68363+Q9BQE3+Q6PEY2+Q13885+Q9BVA1+Q9BUF5); assay: Disruption of microtubule polymerization in human M21 cells at 5 times IC50 measured after 24 hrs by DAPI staining based immunofluorescence microscopic analysis; assay type: cell-based
M21 [7] = assay: Cell cycle arrest in human M21 cells assessed as accumulation at G0/G1 phase at 2 to 5 times IC50 measured after 24 hrs by DAPI staining based flow cytometry (reference value: 65.5%); assay type: functional
Tubulin (Homo sapiens) [8] = biological target: T1, Tubulin (Homo sapiens); assay: Disruption of microtubule polymerization in human M21 cells assessed as induction of mitotic abnormalities at 5 times IC50 measured after 24 hrs by DAPI staining based immunofluorescence microscopic analysis; assay type: cell-based
Sus scrofa = species on record: Sus scrofa; assay: Inhibition of porcine brain tubulin polymerization at 3 uM measured after 60 mins by fluorescence assay
[9] = Toxicity in chick embryo assessed as death at 10 ug, iv incubated for 7 days relative to control; assay type: organism-based; conditions: in vivo, at 10 µg, time 7 day, read-out: Activity
[10] = Solubility of compound in DMSO at 3 uM; assay type: physicochemical

Row | IC50 (MCF7) | IC50 (HT-29) | IC50 (HT-1080) | Structure (SMILES) | IC50 (M21 [1]) | Activity (M21 [2]) | Activity (M21 [3]) | Activity (M21 [4]) | Inhibition of EBI binding (active/inactive) [5] | Activity (Tubulin (Homo sapiens) [6]) | Activity (M21 [7]) | Activity (Tubulin (Homo sapiens) [8]) | inhibition (Sus scrofa) | mortality at 168 h [9] | solubility [10]
1 | 290 nM | 690 nM | 590 nM | COc1ccc(OS(=O)(=O)c2ccc(N3CCCC3=O)cc2)cc1OC | 650 nM |  |  |  |  |  |  |  |  |  | 
2 | 7000 nM | 5400 nM | 8800 nM | O=C1CCCN1c1ccc(S(=O)(=O)Nc2ccc(-c3ccccc3)cc2)cc1 | 4700 nM |  |  |  |  |  |  |  |  |  | 
3 | 17 nM | 16 nM | 11 nM | COc1cc(OS(=O)(=O)c2ccc(N3CCCC3=O)cc2)cc(OC)c1OC | 13 nM | 3.8% | 6.1% | 81.8% | Active | Active | 8.3% | Active |  |  | 
4 | 2800 nM | 3400 nM | 4900 nM | O=C1CCCN1c1ccc(S(=O)(=O)Nc2ccccc2)cc1 | 5600 nM |  |  |  |  |  |  |  |  |  | 
5 | 22 nM | 59 nM | 40 nM | O=C1CCCN1c1ccc(S(=O)(=O)Oc2cccc(I)c2)cc1 | 88 nM | 4.3% | 6.5% | 81.4% |  |  | 7.8% |  |  |  | 
6 | 140 nM | 120 nM | 180 nM | O=C1CCCN1c1ccc(S(=O)(=O)Oc2cccc(Cl)c2)cc1 | 110 nM |  |  |  |  |  |  |  |  |  | 
7 | 1700 nM | 2900 nM | 2600 nM | O=C1CCCN1c1ccc(S(=O)(=O)Oc2ccc(-c3ccccc3)cc2)cc1 | 2300 nM |  |  |  |  |  |  |  |  |  | 
8 | 960 nM | 730 nM | 1200 nM | O=C1CCCN1c1ccc(S(=O)(=O)Nc2ccccc2-c2ccccc2)cc1 | 430 nM | 3% | 12.1% | 25.1% |  |  | 59.8% |  |  |  | 
9 | 16000 nM | 12000 nM | 21000 nM | CC(C)c1ccccc1NS(=O)(=O)c1ccc(N2CCCC2=O)cc1 | 9900 nM |  |  |  |  |  |  |  |  |  | 
10 | 690 nM | 1300 nM | 990 nM | COc1cc(NS(=O)(=O)c2ccc(N3CCCC3=O)cc2)cc(OC)c1 | 390 nM | 4.9% | 9.8% | 42.2% |  |  | 43.1% |  |  |  | 
11 | 600 nM | 390 nM | 860 nM | O=C1CCCN1c1ccc(S(=O)(=O)Nc2cccc(I)c2)cc1 | 330 nM | 6.8% | 7.8% | 74.2% | Active | Active | 11.2% | Active |  |  | 
12 | 4600 nM | 4800 nM | 8500 nM | COc1ccc(OS(=O)(=O)c2ccc(N3CCCC3=O)cc2)cc1 | 7500 nM |  |  |  |  |  |  |  |  |  | 
13 | 500 nM | 780 nM | 840 nM | CC(C)c1ccccc1OS(=O)(=O)c1ccc(N2CCCC2=O)cc1 | 910 nM |  |  |  |  |  |  |  |  |  | 
14 | 890 nM | 1200 nM | 1300 nM | COc1ccccc1OS(=O)(=O)c1ccc(N2CCCC2=O)cc1 | 1300 nM |  |  |  |  |  |  |  |  |  | 
15 | 2600 nM | 890 nM | 2250 nM | COc1ccc(NS(=O)(=O)c2ccc(N3CCCC3=O)cc2)cc1OC | 5100 nM |  |  |  |  |  |  |  |  |  | 
16 | 1100 nM | 860 nM | 1300 nM | COc1cccc(NS(=O)(=O)c2ccc(N3CCCC3=O)cc2)c1 | 940 nM |  |  |  |  |  |  |  |  |  | 

The next lines start with the compound.

Row | Structure (SMILES) | IC50 (MCF7) | IC50 (HT-29) | IC50 (HT-1080) | IC50 (M21 [1]) | Activity (M21 [2]) | Activity (M21 [3]) | Activity (M21 [4]) | Inhibition of EBI binding (active/inactive) [5] | Activity (Tubulin (Homo sapiens) [6]) | Activity (M21 [7]) | Activity (Tubulin (Homo sapiens) [8]) | inhibition (Sus scrofa) | mortality at 168 h [9] | solubility [10]
17 | COc1ccccc1NS(=O)(=O)c1ccc(N2CCCC2=O)cc1 | 1800 nM | 2400 nM | 3200 nM | 3000 nM |  |  |  |  |  |  |  |  |  | 
18 | O=C1CCCN1c1ccc(S(=O)(=O)Nc2cccc(Br)c2)cc1 | 830 nM | 590 nM | 1300 nM | 950 nM |  |  |  |  |  |  |  |  |  | 
19 | COc1ccc(NS(=O)(=O)c2ccc(N3CCCC3=O)cc2)cc1 | 4600 nM | 4800 nM | 8500 nM | 7500 nM |  |  |  |  |  |  |  |  |  | 
20 | O=C1CCCN1c1ccc(S(=O)(=O)Oc2cccc(F)c2)cc1 | 370 nM | 310 nM | 810 nM | 300 nM |  |  |  |  |  |  |  |  |  | 
21 | COc1cccc(OS(=O)(=O)c2ccc(N3CCCC3=O)cc2)c1 | 100 nM | 120 nM | 190 nM | 120 nM |  |  |  |  |  |  |  |  |  | 
22 | O=C1CCCN1c1ccc(S(=O)(=O)Nc2cccc(Cl)c2)cc1 | 560 nM | 680 nM | 680 nM | 770 nM | 10.6% | 7.9% | 67.8% |  |  | 13.7% |  |  |  | 
23 | O=C1CCCN1c1ccc(S(=O)(=O)Oc2cc(Br)cc(Br)c2)cc1 | 11 nM | 10 nM | 11 nM | 8.7 nM | 3.9% | 7% | 79.7% | Active | Active | 9.4% | Active | Active | 18% | Soluble
24 | O=C1CCCN1c1ccc(S(=O)(=O)Nc2cccc(F)c2)cc1 | 680 nM | 5400 nM | 840 nM | 2300 nM |  |  |  |  |  |  |  |  |  | 
25 | O=C1CCCN1c1ccc(S(=O)(=O)Nc2cc(Br)cc(Br)c2)cc1 | 520 nM | 390 nM | 590 nM | 280 nM | 4.2% | 6.3% | 81.2% | Active | Active | 8.3% | Active | Active | 25% | Soluble
26 | O=C1CCCN1c1ccc(S(=O)(=O)Oc2ccccc2-c2ccccc2)cc1 | 210 nM | 350 nM | 370 nM | 190 nM |  |  |  |  |  |  |  |  |  | 
27 | O=C1CCCN1c1ccc(S(=O)(=O)Oc2ccccc2)cc1 | 650 nM | 480 nM | 920 nM | 460 nM |  |  |  |  |  |  |  |  |  | 
28 | O=C1CCCN1c1ccc(S(=O)(=O)Oc2cccc(Br)c2)cc1 | 60 nM | 60 nM | 80 nM | 40 nM | 13.3% | 9.6% | 53.1% |  |  | 24% |  |  |  | 
